Test systems include EKVX NSCLC; HCT-116 colon; HCT-15 colon; LOX IMVI melanoma; MDA-MB-231 breast; OVCAR-3 ovarian; OVCAR-8 ovarian; SF-295 CNS; SK-OV-3 ovarian; UO-31 renal.
Common to all, as to experiment: DTP human tumour cell line panel, 48 h

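In this assay, cells in 96-well plates receive the compound at five concentrations for 48 hours. Endpoints are linearly interpolated between the surrounding concentrations. GI50 = concentration required for 50% inhibition of growth. The concentration for full growth arrest is given as TGI.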 A value given as a limit tells only on which side of the number the result lay.

The GI50 is the concentration at which growth is held to half of that of the control. One may read the TGI as the concentration giving total growth inhibition. Read a high TGI as less potent growth arrest. With `O=C1NC(=O)C(=Cc2cn(Cc3ccccc3)c3ccccc23)C(=O)N1`, the GI50 in the test with EKVX NSCLC is 21.3 µM; in the test with HCT-116 colon, 11.7 µM; with HCT-15 colon, 14.3 µM; with LOX IMVI melanoma it was 14.1 µM; in the test with MDA-MB-231 breast, 15.2 µM; in the test with OVCAR-3 ovarian it was 5.75 µM. For the same compound, the GI50 in the test with OVCAR-8 ovarian was 17.1 µM; with SF-295 CNS it was 1.39 µM; with SK-OV-3 ovarian, 6.3 µM; with UO-31 renal it was 12 µM. For the same compound, the total growth inhibition concentration (TGI) was above 63.5 µM with EKVX NSCLC; 27.5 µM with HCT-116 colon; 38.2 µM in the test on HCT-15 colon; 33.1 µM in the test on LOX IMVI melanoma; 43.9 µM in the test with MDA-MB-231 breast; 19.4 µM in the test on OVCAR-3 ovarian. For the same compound, the TGI is 43.8 µM in the test on OVCAR-8 ovarian, 34.5 µM in the test on SF-295 CNS, 29 µM with SK-OV-3 ovarian and 31 µM with UO-31 renal.

`CN(C)CCN1C(=O)c2cccc3c(/C=C/CN4C(=O)c5cccc6cccc(c56)C4=O)ccc(c23)C1=O`: the GI50 is above 100 µM in the test with EKVX NSCLC; 56.9 µM in the test on HCT-116 colon; above 100 µM with HCT-15 colon; 14.5 µM in the test on LOX IMVI melanoma; 35.9 µM in the test on MDA-MB-231 breast; above 100 µM in the test with OVCAR-3 ovarian. Moreover, the GI50 is 4.21 µM with OVCAR-8 ovarian, above 100 µM in the test with SF-295 CNS, above 100 µM in the test on SK-OV-3 ovarian and 17.4 µM with UO-31 renal. The TGI with EKVX NSCLC is above 100 µM; in the test with HCT-116 colon, above 100 µM; with HCT-15 colon, above 100 µM; with LOX IMVI melanoma, 27.7 µM; in the test with MDA-MB-231 breast, above 100 µM; in the test on OVCAR-3 ovarian, above 100 µM. Besides, the TGI in the test on OVCAR-8 ovarian is above 100 µM; in the test on SF-295 CNS, above 100 µM; in the test on SK-OV-3 ovarian, above 100 µM; with UO-31 renal, 48.2 µM.

With `COC1=C(OC)C(=O)C(C/C=C(\C)CC/C=C(\C)CC/C=C(\C)CC/C=C(\C)CC/C=C(\C)CC/C=C(\C)CC/C=C(\C)CC/C=C(\C)CC/C=C(\C)CCC=C(C)C)=C(C)C1=O`, the GI50 with EKVX NSCLC, with HCT-116 colon, in the test on HCT-15 colon, with LOX IMVI melanoma, in the test with MDA-MB-231 breast and in the test on OVCAR-3 ovarian was above 100 µM each time. Further, the GI50 in the test on OVCAR-8 ovarian, with SF-295 CNS, in the test with SK-OV-3 ovarian and in the test with UO-31 renal was above 100 µM each time. Further, the TGI in the test on EKVX NSCLC, with HCT-116 colon, in the test on HCT-15 colon, with LOX IMVI melanoma, in the test on MDA-MB-231 breast and in the test with OVCAR-3 ovarian was above 100 µM in each case. Further, the concentration for total growth inhibition (TGI) in the test with OVCAR-8 ovarian, in the test with SF-295 CNS, with SK-OV-3 ovarian and in the test with UO-31 renal was above 100 µM in each case.

For the compound `COc1ccc2nc(C)cc(Sc3nc4ccccc4s3)c2c1`, the GI50 is 1.61 µM in the test with EKVX NSCLC; 1.14 µM in the test on HCT-116 colon; 0.953 µM in the test on HCT-15 colon; 1.19 µM with LOX IMVI melanoma; 1.05 µM with MDA-MB-231 breast; 1.47 µM in the test on OVCAR-3 ovarian. The GI50 in the test on OVCAR-8 ovarian was 2.66 µM; in the test with SF-295 CNS, 2.48 µM; in the test with SK-OV-3 ovarian, 1.19 µM; with UO-31 renal, 0.385 µM. Further, the TGI in the test on EKVX NSCLC was determined as 8 µM; with HCT-116 colon, 3.15 µM; with HCT-15 colon, 3.73 µM; with LOX IMVI melanoma, 3.37 µM; in the test with MDA-MB-231 breast it was 5.93 µM; in the test with OVCAR-3 ovarian, 3.3 µM. The total growth inhibition concentration (TGI) with OVCAR-8 ovarian was determined as 10.9 µM; in the test with SF-295 CNS, 13.2 µM; in the test on SK-OV-3 ovarian, 4.75 µM; with UO-31 renal it was 5.43 µM.

As to `COc1ccc2c(c1O)[C@@]13CCCC=C1[C@@H](C2)[N+](C)(C)CC3`, the TGI in the test on EKVX NSCLC, with HCT-116 colon, with HCT-15 colon, in the test with LOX IMVI melanoma, with MDA-MB-231 breast and in the test on OVCAR-3 ovarian was above 100 µM each time. For the same compound, the total growth inhibition concentration (TGI) in the test on OVCAR-8 ovarian, in the test with SF-295 CNS, with SK-OV-3 ovarian and in the test with UO-31 renal was above 100 µM each time.

In the case of `COc1c(OC)c(OC)c2c(=O)cc(-c3ccc(OC(C)C)cc3)oc2c1OC`, the TGI in the test on EKVX NSCLC is above 54.9 µM; in the test on HCT-116 colon, 23.6 µM; in the test with HCT-15 colon, above 54.8 µM; in the test with LOX IMVI melanoma, above 55.2 µM; in the test with MDA-MB-231 breast it was above 54.2 µM; in the test with OVCAR-3 ovarian, 44.6 µM. The TGI was 49.5 µM in the test on OVCAR-8 ovarian, above 53.6 µM in the test on SF-295 CNS, above 50.5 µM with SK-OV-3 ovarian and above 47.3 µM in the test on UO-31 renal.

Take `Cc1nn(C)c2ncnc(N/N=C/c3cccc(O)c3O)c12`: the GI50 in the test with EKVX NSCLC was 2.78 µM; with HCT-116 colon it was 0.568 µM; in the test with HCT-15 colon, 0.225 µM; in the test on LOX IMVI melanoma, 0.238 µM; in the test on MDA-MB-231 breast it was 0.486 µM; in the test with OVCAR-3 ovarian, 0.356 µM. Moreover, the concentration for 50% growth inhibition (GI50) was 0.413 µM with OVCAR-8 ovarian, 2.73 µM in the test with SF-295 CNS, 2.24 µM in the test with SK-OV-3 ovarian and 0.251 µM with UO-31 renal. For the same compound, the TGI was above 100 µM in the test on EKVX NSCLC; above 100 µM with HCT-116 colon; above 100 µM in the test with HCT-15 colon; 4.05 µM in the test on LOX IMVI melanoma; 39.5 µM with MDA-MB-231 breast; above 100 µM with OVCAR-3 ovarian. The concentration for total growth inhibition (TGI) was above 100 µM with OVCAR-8 ovarian, 49.9 µM with SF-295 CNS, above 81 µM in the test with SK-OV-3 ovarian and 2.19 µM in the test with UO-31 renal.

As to `CCCCCCCCCCCNC=O`, the TGI was above 100 µM with EKVX NSCLC; above 100 µM in the test with HCT-116 colon; 71.8 µM with HCT-15 colon; above 100 µM in the test with LOX IMVI melanoma; above 100 µM in the test on MDA-MB-231 breast; above 100 µM with OVCAR-3 ovarian. For the same compound, the total growth inhibition concentration (TGI) in the test on OVCAR-8 ovarian, with SF-295 CNS, in the test with SK-OV-3 ovarian and in the test with UO-31 renal was above 100 µM throughout.

The values above are taken from PubChem BioAssay (NCI).
